According to patent US5786348A, “Methods for preparation and use of 1α,24(S)-dihydroxy vitamin D2” (priority 1995, dated 1998):
Like-named read-outs stand apart in the source and are kept apart here.

Key:
vitamin D receptor (VDR) = biological target: T1, vitamin D receptor (VDR) (Homo sapiens, UniProt P11473); assay: Vitamin D-dependent transcriptional activation: growth hormone production in COS-1 cells co-transfected with VDR plasmid and VDRE-GH reporter; type: cell-based; details: for Total GH Production: averages of duplicate determinations
T1 sequence (P11473 1-427): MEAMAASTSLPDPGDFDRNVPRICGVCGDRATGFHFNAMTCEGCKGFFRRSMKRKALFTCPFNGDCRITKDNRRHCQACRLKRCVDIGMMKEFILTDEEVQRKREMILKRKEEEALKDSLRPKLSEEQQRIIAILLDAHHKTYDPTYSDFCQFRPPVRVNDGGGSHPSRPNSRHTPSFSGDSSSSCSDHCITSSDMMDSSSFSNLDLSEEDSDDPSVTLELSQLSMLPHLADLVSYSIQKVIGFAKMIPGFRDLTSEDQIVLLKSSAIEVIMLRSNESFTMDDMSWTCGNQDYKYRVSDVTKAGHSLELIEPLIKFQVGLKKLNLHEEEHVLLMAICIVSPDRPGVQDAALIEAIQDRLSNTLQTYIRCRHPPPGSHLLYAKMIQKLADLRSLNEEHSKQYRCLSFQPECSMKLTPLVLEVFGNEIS
Description: The biological activity in vitro of chemically synthesized 1α,24(S)-(OH)2 D2 and 1α,24(R)-(OH)2 D2 was measured using a vitamin D-dependent transcriptional activation model system in which a vitamin D receptor (VDR)-expressing plasmid pSG5-hVDR1/3and a plasmid p(CT4)^4 TKGH containing a Growth Hormone (GH)-gene, under the control of a vitamin D-responsive element (VDRE) were co-transfected into Green monkey kidney, COS-1 cells. DNA's for these two vectors were supplied by Dr. Mark Haussler, Department of Biochemistry, University of Arizona, Tucson, Ariz.
Transfected cells were incubated with vitamin D metabolites and growth hormone production was measured.

[1] = system: 1,25-(OH)2 D3 receptor site; details: Ishizuka et al., Steroids 1981, 1982; cited from earlier work
bovine thymus VDR = biological target: T2, bovine thymus VDR (Bos taurus, UniProt Q28037); assay: Radioreceptor assay with bovine thymus VDR (Incstar), displacement of 3H-1α,25-(OH)2 D3; type: binding; details: bovine thymus VDR radioreceptor assay; read-out: Half-maximal binding (converted)
T2 construct: commercially available kit of bovine thymus VDR; purchased Incstar (Stillwater, Minn.); host or cells: bovine thymus
T2 sequence (Q28037 1-426): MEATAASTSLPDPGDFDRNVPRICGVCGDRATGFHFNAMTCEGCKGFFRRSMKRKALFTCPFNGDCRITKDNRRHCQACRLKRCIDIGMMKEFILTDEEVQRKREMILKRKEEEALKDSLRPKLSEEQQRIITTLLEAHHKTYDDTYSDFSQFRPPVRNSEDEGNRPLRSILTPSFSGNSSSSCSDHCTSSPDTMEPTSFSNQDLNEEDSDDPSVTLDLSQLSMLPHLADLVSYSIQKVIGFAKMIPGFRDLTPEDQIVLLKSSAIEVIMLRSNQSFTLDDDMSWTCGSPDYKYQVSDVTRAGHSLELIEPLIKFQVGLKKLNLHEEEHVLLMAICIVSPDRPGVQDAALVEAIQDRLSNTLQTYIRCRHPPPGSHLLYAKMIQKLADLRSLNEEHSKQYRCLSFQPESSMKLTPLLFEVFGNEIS
Excerpt: Purified 1α,24(S)-(OH)2 D2 was quantitated by photodiode array spectrophotometry and assayed in the radioreceptor assay.
The purified 1α,24(R)-(OH)2 D2 and 1α,24(S)-(OH)2 D2 epimers were quantitated by ultraviolet spectroscopy. The concentration of 1α,24(R)-(OH)2 D2 required to produce the same displacement of ^3 H-1α,25-(OH)2 D3 tracer from the receptor was 20 to 30 times that required for 1α,24(S)-(OH)2 D2, as shown in FIG. 4.

[2] = human, in vivo; cited from earlier work
Hep 3B cells = assay: Metabolism of 1α-OH-D2 in Hep 3B human hepatoma cells at rising substrate concentration; type: in vitro ADME; details: Experiment 2, photodiode array spectrophotometry
Description: Substantially pure 1α-(OH)D2 was obtained from Bone Care International, Inc. of Madison, Wis. The 1α-(OH)D2 was cultured for 48 hours with cells derived from a human hepatoma, Hep 3B, in medium devoid of fetal calf serum using known methods in the art.
Lipid extracts of the combined medium and cells were generated by known methods in the art and were subjected to high pressure liquid chromatography (HPLC) on Zorbax-S1L developed with hexane/isopropanol/methanol (91:7:2). The putative 1α,24(?)-(OH)2 D2 metabolite eluted between the parent 1α-(OH)D2 and standard 1α,25-(OH)2 D2 (also obtained from Bone Care International, Inc. of Madison, Wis.). (As used herein, the term "1α,24(?)-(OH)2 D2 " is meant to indicate that the epimeric form has not been identified.) The 1α,24(?)-(OH)2 D2 was further purified by this HPLC system before the metabolite's identification was undertaken using mass spectrometry analysis.
Hep 3B cells were incubated with 1α-OH-D2, as described above, at final concentrations of 1, 10, or 100 nM (Experiment 1), and 1 or 10 μM (Experiment 2) and 1α,24(S)-(OH)2 D2 was extracted and purified. The 1α,24(S)-(OH)2 D2 and 1α,25-(OH)2 D2 metabolites were quantitated by recovered radiolabel (Experiment 1) or by photodiode array spectrophotometry (Experiment 2).

[3] = Blood metabolite levels in osteoporotic women given 1α-OH-D2; type: in vivo, human; details: one day after a single 2 μg dose
Description: An increase in the production of 1α,24(S)-(OH)2 D2 relative to 1α,25-(OH)2 D2 has also been observed by the present inventors in human females who received 1α-OH-D2 as part of an investigation of that drug for the treatment of osteoporosis. Following either a single dose of 2 μg of 1α-OH-D2 or daily doses of 8 μg/day for one week, blood was collected and analyzed for the metabolites 1α,24(S)-(OH)2 D2 and 1α,25-(OH)2 D2. Lipid was extracted from the blood, and the metabolites were purified by HPLC using standard methods and quantified with the radioreceptor assay produced by Incstar (Stillwater, Minn.). One day after a single 2 μg dose, the level of 1α,24(S)-(OH)2 D2 was undetectable with the 1α,25-(OH)2 D2 level being approximately 11 pg/ml. In contrast, one day following the last dose of 8 μg, the level of 1α,24(S)-(OH)2 D2 averaged 9 pg/ml with the 1α,25-(OH)2 D2 level averaging 30 pg/ml.

[4] = type: in vivo, rat
Description: Vitamin D2 or 24-OH-D2 was administered (either oral or intraperitoneal supplementation) to vitamin D-deficient rats. Lipid extracts of the plasma were prepared and the metabolites purified by the method of Horst et al. (Horst, R. L., Koszewski, N. J. and Reinhardt, T. A., Biochem., 29:578-82 (1990)) described below for synthesyzing standard biological 1α,24-(OH)2 D2.
Standard biological 1α,24-(OH)2 D2 was synthesized in vitro from 24-OH-D2 by incubating 10 μg of 24-OH-D2 in flask containing 5 ml of 20% kidney homogenates made from vitamin D-deficient chicks. The product of this reaction was isolated by HPLC and identified by mass spectrometry.

[5] = inducer molar concentration 10^-7
[6] = inducer molar concentration 10^-8
[7] = inducer molar concentration 10^-9
[8] = inducer molar concentration 10^-5
[9] = inducer molar concentration 10^-6

C=C1/C(=C\C=C2/CCC[C@]3(C)[C@@H]([C@H](C)/C=C/[C@](C)(O)C(C)C)CC[C@@H]23)C[C@@H](O)C[C@@H]1O [1α,24(R)-(OH)2 D2, 1α,24(R)-dihydroxy vitamin D2]
Net vitamin D-inducible GH-production (vitamin D receptor (VDR); [5]): 1256 ng/mL | Total GH Production (vitamin D receptor (VDR); [5]): 1300 ng/mL | Net vitamin D-inducible GH-production (vitamin D receptor (VDR); [6]): 1056 ng/mL | Total GH Production (vitamin D receptor (VDR); [6]): 1100 ng/mL | Net vitamin D-inducible GH-production (vitamin D receptor (VDR); [7]): 36 ng/mL | Total GH Production (vitamin D receptor (VDR); [7]): 80 ng/mL

C=C1/C(=C\C=C2/CCC[C@]3(C)[C@@H]([C@H](C)CC[C@@H](O)C(C)C)CC[C@@H]23)C[C@@H](O)C[C@@H]1O [1α,24(R)-(OH)2 D3, 1α,24(R)-dihydroxyvitamin D3]
Binding of the 1,25-(OH)2 D3 receptor site relative to 1,25-(OH)2 D3 [1]: more tightly

C=C1/C(=C\C=C2/CCC[C@]3(C)[C@@H]([C@H](C)/C=C/[C@H](C)C(C)(C)O)CC[C@@H]23)C[C@@H](O)C[C@@H]1O [1α,25-(OH)2D2, 1α,25-dihydroxy vitamin D2, reference compound]
IC50 (bovine thymus VDR): 0.187 nM

C=C1/C(=C\C=C2/CCC[C@]3(C)[C@@H]([C@H](C)CCCC(C)C)CC[C@@H]23)C[C@@H](O)C[C@@H]1O [1α-(OH)D3, 1α-hydroxy vitamin D3]
Safety of dosage levels of 2.0 μg/day or greater [2]: not safely obtained

C=C1/C(=C\C=C2/CCC[C@]3(C)[C@@H]([C@H](C)/C=C/[C@H](C)C(C)C)CC[C@@H]23)C[C@@H](O)C[C@@H]1O [1α-OH-D2, 1α-hydroxy vitamin D2]
Rate of Production of 1α,24(S)-(OH)2 D2 (Hep 3B cells; substrate concentration 1 μM): 4.9 pmol per 10^6 cells/day | Rate of Production of 1α,24(S)-(OH)2 D2 (Hep 3B cells; substrate concentration 10 μM): 59 pmol per 10^6 cells/day | Rate of Production of 1α,25-(OH)2 D2 (Hep 3B cells; substrate concentration 10 μM): 7.4 pmol per 10^6 cells/day | Blood level of metabolite 1α,24(S)-(OH)2 D2 [3]: undetectable

C=C1CC[C@H](O)C/C1=C/C=C1\CCC[C@]2(C)[C@@H]([C@H](C)/C=C/C(C)(O)C(C)C)CC[C@@H]12 (stereo partly shown) [24-OH-D2, 24-hydroxyvitamin D2]
Metabolite isolated from plasma lipid extracts ([4]; rat, in vivo): co-migrated on HPLC with the standard 1α,24-(OH)2 D2

C=C1CC[C@H](O)C/C1=C/C=C1\CCC[C@]2(C)[C@@H]([C@H](C)CCCC(C)(C)O)CC[C@@H]12 [25-OH-D3, 25-hydroxy vitamin D3, reference compound]
Net vitamin D-inducible GH-production (vitamin D receptor (VDR); [8]): 731 ng/mL | Total GH Production (vitamin D receptor (VDR); [8]): 775 ng/mL | Net vitamin D-inducible GH-production (vitamin D receptor (VDR); [9]): 1056 ng/mL | Total GH Production (vitamin D receptor (VDR); [9]): 1100 ng/mL | Net vitamin D-inducible GH-production (vitamin D receptor (VDR); [5]): 201 ng/mL | Total GH Production (vitamin D receptor (VDR); [5]): 245 ng/mL

C=C1CC[C@H](O)C/C1=C/C=C1\CCC[C@]2(C)[C@@H]([C@H](C)/C=C/[C@H](C)C(C)C)CC[C@@H]12 [vitamin D2, Vitamin D2]
Metabolite isolated from plasma lipid extracts ([4]; vitamin D-deficient rats, HPLC against standard biological 1α,24-(OH)2 D2): co-migrated on HPLC with the standard 1α,24-(OH)2 D2

C=C1CC[C@H](O)C/C1=C/C=C1\CCC[C@]2(C)[C@@H]([C@H](C)CCCC(C)C)CC[C@@H]12 [vitamin D3]
24-OH-D3 in plasma ([4]; comparable vitamin D-deficient rats): no detectable
